In ChEMBL document CHEMBL5303304, “EUbOPEN Chemogenomics Library - IncuCyte” (2023):
Values joined by “and” are separate entries in the source; they are usually repeats but may differ in a detail not shown here. Equal entries are not always repeated.

How the values were obtained:
Format in all cases: toxicity, cell-based
U2OS = assay: Incucyte cell viability with U2OS; details: human, 10 µM, compound concentration 10 uM
Fibroblast = assay: Incucyte cell viability with human fibroblast; details: 10 µM, compound concentration 10 uM
HEK-293T = assay: Incucyte cell viability with HEK293T; details: human, 10 µM, compound concentration 10 uM
Further: unitless GR value; below 1 slowed growth and below 0 cell loss.

SMILES | Growth Rate (U2OS; 0 h, replicate number 2) | Growth Rate (U2OS; 6 h, replicate number 1) | Growth Rate (U2OS; 12 h, replicate number 1) | Growth Rate (U2OS; 12 h, replicate number 2) | Growth Rate (U2OS; 18 h, replicate number 1) | Growth Rate (U2OS; 18 h, replicate number 2) | Growth Rate (U2OS; 24 h, replicate number 1) | Growth Rate (U2OS; 24 h, replicate number 2) | Growth Rate (Fibroblast; 0 h, replicate number 2) | Growth Rate (Fibroblast; 12 h, replicate number 1) | Growth Rate (Fibroblast; 12 h, replicate number 2) | Growth Rate (Fibroblast; 24 h, replicate number 1) | Growth Rate (HEK-293T; 6 h, replicate number 1) | Growth Rate (HEK-293T; 12 h, replicate number 1) | Growth Rate (HEK-293T; 12 h, replicate number 2) | Growth Rate (HEK-293T; 18 h, replicate number 1) | Growth Rate (HEK-293T; 18 h, replicate number 2) | Growth Rate (HEK-293T; 24 h, replicate number 1) | Growth Rate (HEK-293T; 24 h, replicate number 2) | Growth Rate (HEK-293T; 6 h, replicate number 2) | other results
C[C@@]1(Cc2ccc(C#N)cc2)C(=O)N(c2cc(Cl)cc(Cl)c2)c2ncc(C(=O)NC3(c4nc(C5CCC5)no4)CC3)n21 [BI 9446] | 0.34 | 0.76 | 0.77 | 0.61 | 0.83 | 0.75 | 0.67 | 0.94 | -0.17 | 0.61 | 0.12 | 0.4 | 0.51 | 0.15 | 0.74 | 0.2 | 0.52 | 0.21 | 0.48 | – | Growth Rate (U2OS; 6 h, replicate number 2): 1; Growth Rate (Fibroblast; 0 h, replicate number 1): -1; Growth Rate (Fibroblast; 6 h, replicate number 1): 0.23; Growth Rate (Fibroblast; 6 h, replicate number 2): -0.58; Growth Rate (Fibroblast; 18 h, replicate number 1): 0.41; Growth Rate (Fibroblast; 18 h, replicate number 2): 0.52; Growth Rate (Fibroblast; 24 h, replicate number 2): 0.41; Growth Rate (HEK-293T; 0 h, replicate number 1): 0.53
CC(=O)N1CCC(c2ccc(C(=O)NC(=N)N)cc2C(F)(F)F)CC1 [BI 9627] | 0.44 | 0.3 | 0.75 | 0.96 | 0.9 | – | 1 | 0.92 | – | – | 0.57 | 0.8 | – | – | 0.65 | – | 0.77 | – | 0.92 | 0.69 | Growth Rate (U2OS; 0 h, replicate number 1): 0.01; Growth Rate (Fibroblast; 18 h, replicate number 2): 0.95; Growth Rate (Fibroblast; 24 h, replicate number 2): 0.76; Growth Rate (HEK-293T; 0 h, replicate number 1): 0.72
CCC(=O)N[C@H]1CC[C@@H](C(=O)N(C)c2ccc(-c3nc4ccccc4o3)cc2)C1 [BI 99179] | – | 0.68 | 0.89 | 0.65 | 0.98 | 0.87 | 0.86 | 0.96 | -0.49 | 0.5 | – | 0.79 | 0.1 | 0.1 | 0.26 | 0.31 | 0.51 | 0.51 | 0.69 | 0.11 | Growth Rate (U2OS; 0 h, replicate number 1): 0.2; Growth Rate (Fibroblast; 6 h, replicate number 1): 0.53; Growth Rate (Fibroblast; 6 h, replicate number 2): 0.58; Growth Rate (Fibroblast; 18 h, replicate number 1): 0.66; Growth Rate (Fibroblast; 18 h, replicate number 2): 0.98
CCC(=O)N[C@@H]1CC[C@H](C(=O)N(C)c2ccc(-c3nc4ccccc4o3)cc2)C1 [BI 99990] | – | 0.62 | 0.58 | 0.64 | – | – | 0.96 | – | – | – | – | 0.79 | -0.34 | 0.47 | 0.49 | 0.8 | 0.66 | 0.82 | 0.8 | 0.12 | Growth Rate (U2OS; 6 h, replicate number 2): 0.78; Growth Rate (Fibroblast; 24 h, replicate number 2): 0.81
CS(=O)(=O)c1cc(C2(NC(=O)c3cncc4c3cnn4-c3ccc(F)cc3)CC2)ccn1 [BI 639667] | – | 0.64 | – | 0.76 | – | – | – | – | -0.75 | – | 0.97 | – | 0.52 | 0.77 | – | 0.9 | – | 1 | – | – | Growth Rate (HEK-293T; 0 h, replicate number 2): -0.17
CN(C)C(=O)Cn1cc(-c2nc([C@@](C)(c3ccc(-c4cnc(N)nc4)cc3)C3CC3)no2)cn1 [BI 665915] | 0.28 | 0.55 | 0.68 | 0.87 | – | 0.99 | 0.95 | 0.88 | -0.12 | 0.51 | – | 0.6 | 0.47 | – | – | 0.93 | 0.9 | 0.96 | – | – | Growth Rate (U2OS; 6 h, replicate number 2): 0.71; Growth Rate (Fibroblast; 0 h, replicate number 1): -1; Growth Rate (Fibroblast; 6 h, replicate number 1): 0.2; Growth Rate (Fibroblast; 18 h, replicate number 1): 0.71; Growth Rate (Fibroblast; 18 h, replicate number 2): 0.97; Growth Rate (HEK-293T; 0 h, replicate number 1): 0.53
CC[C@H](CC(=O)O)n1c(=O)c2ncccc2n(Cc2cn(C)c3cc(C)cc(C)c23)c1=O [BI-1942] | 0.8 | 0.25 and 0.31 | 0.47 and 0.65 | 0.71 and 0.98 | 0.61 and 0.75 | 0.84 | 0.67 and 0.73 | 0.61 | 0 | 0.83 and 0.8 | 0.64 and 0.67 | 0.7 and 1 | – | – | 0.58 | 0.94 | 0.52 | – | 0.65 | 0.45 | Growth Rate (U2OS; 0 h, replicate number 1): 0.47 and 0.69; Growth Rate (U2OS; 6 h, replicate number 2): 0.74; Growth Rate (Fibroblast; 6 h, replicate number 1): 0.14; Growth Rate (Fibroblast; 6 h, replicate number 2): 0.23 and 0.17; Growth Rate (Fibroblast; 18 h, replicate number 1): 0.75 and 0.86; Growth Rate (Fibroblast; 18 h, replicate number 2): 0.58; Growth Rate (Fibroblast; 24 h, replicate number 2): 0.86 and 0.92; Growth Rate (HEK-293T; 0 h, replicate number 1): 0.52; Growth Rate (HEK-293T; 0 h, replicate number 2): -0.53
CC[C@@H]1C(=O)N(C)c2cnc(Nc3ccc(C(=O)NC4CCN(C)CC4)cc3OC)nc2N1C1CCCC1 [BI-2536] | 0.33 | – | 0.69 | 0.59 | 0.34 | 0.42 | 0.08 | 0.3 | -0.99 | – | – | 0.41 | 0.45 | -0.09 | 0.08 | -0.18 | – | -0.17 | -0.18 | 0.73 | Growth Rate (Fibroblast; 18 h, replicate number 1): 0.76; Growth Rate (Fibroblast; 18 h, replicate number 2): 0.83; Growth Rate (Fibroblast; 24 h, replicate number 2): 0.46
CN(C)C(=O)c1sc2nc(N3CCC(S(C)(=O)=O)CC3)cc(C(F)(F)F)c2c1N [BI-5026] | – | 0.38 and 0.65 | 0.88 and 0.68 | – | 0.84 | – | 0.88 and 0.97 | – | -0.94 | – | – | – | 0.88 and 0.51 | 0.83 and 0.56 | 0.99 | 0.86 and 0.6 | 0.85 | 0.97 and 0.77 | 0.98 | 0.65 | Growth Rate (Fibroblast; 0 h, replicate number 1): -1; Growth Rate (HEK-293T; 0 h, replicate number 2): 0.24
Cc1nc2ccccc2c(-c2ccc3c4c(ccnc24)CCO3)c1[C@H](OC(C)(C)C)C(=O)O [BI-224436] | -0.37 | 0.57 | 0.77 | 0.72 | – | 0.85 | – | 0.75 | – | – | 0.76 | – | – | – | – | – | – | – | – | – | Growth Rate (U2OS; 6 h, replicate number 2): 0.42; Growth Rate (HEK-293T; 0 h, replicate number 1): 0.67; Growth Rate (HEK-293T; 0 h, replicate number 2): 0.86
CCC(F)(F)c1cc(N2CCC(S(C)(=O)=O)CC2)nc2sc(C(N)=O)c(N)c12 [BI-605906] | – | 0.71 | – | -0.82 | 0.91 | 0.92 | 0.96 | 0.9 | 0.48 | 0.8 | 0.85 and 0.57 and 0.87 | 0.9 and 0.91 | 0.34 and 0.47 | 0.79 and 0.84 | 0.72 | 0.74 and 0.73 | 0.97 and 0.85 | 0.98 | 0.91 | 0.83 and 0.48 | Growth Rate (Fibroblast; 0 h, replicate number 1): 0.11; Growth Rate (Fibroblast; 6 h, replicate number 1): 0.8; Growth Rate (Fibroblast; 6 h, replicate number 2): 0.76 and 0.88; Growth Rate (Fibroblast; 18 h, replicate number 1): 0.99; Growth Rate (Fibroblast; 24 h, replicate number 2): 0.97 and 0.94; Growth Rate (HEK-293T; 0 h, replicate number 1): -0.07
COc1ccc(-c2coc3cc(O)cc(O)c3c2=O)cc1 [BIOCHANIN] | -0.91 | 1 | – | 0.77 | – | – | 0.95 | 0.93 | -0.65 | -0.08 | 0.69 | – | 0.75 | – | – | – | 1 | – | – | – | Growth Rate (U2OS; 0 h, replicate number 1): 0.85; Growth Rate (Fibroblast; 0 h, replicate number 1): 0.87; Growth Rate (Fibroblast; 6 h, replicate number 2): 0.58; Growth Rate (Fibroblast; 18 h, replicate number 1): 0.21; Growth Rate (Fibroblast; 24 h, replicate number 2): 0.94; Growth Rate (HEK-293T; 0 h, replicate number 2): 0.93
CC[C@H](NC(=O)[C@H](C)NC)C(=O)N1C[C@@H](O)C[C@H]1Cc1c(-c2[nH]c3cc(F)ccc3c2C[C@@H]2C[C@H](O)CN2C(=O)[C@H](CC)NC(=O)[C@H](C)NC)[nH]c2cc(F)ccc12 [BIRINAPANT] | – | – | 0.81 | – | 0.98 | – | – | – | -0.61 | – | – | – | 0.67 | 0.62 | 0.97 | 0.9 | – | – | – | 0.87 | Growth Rate (U2OS; 0 h, replicate number 1): 0.94; Growth Rate (Fibroblast; 0 h, replicate number 1): -0.44
CC(C)(c1ccc(O)cc1)c1ccc(O)cc1 [BISPHENOL A] | – | – | – | 1 | – | – | – | 0.96 | – | 0.37 | 0.83 | 0.57 | 0.82 | – | – | – | – | – | – | – | Growth Rate (Fibroblast; 6 h, replicate number 2): -0.05; Growth Rate (Fibroblast; 18 h, replicate number 2): 0.7
